Data: patent publication US7846973B2, “Chemical process and new crystalline form” (Theravance, Inc., priority 2004, dated 2010)
Counter-ions that a name gives are not always drawn.

Assay: Relative thermodynamic stability of crystalline forms of compound (Ia) monohydrochloride
Assay type: physicochemical
Conditions: Form 2 versus Form 1 (form of WO 2004/106279)
Source text: Such methods can be used to provide seeds of Form 2 material.

With `O=CNc1cc([C@@H](O)CNCCc2ccc(NC[C@H](O)c3ccccc3)cc2)ccc1O` [Form 2, N-{2-[4-((R)-2-hydroxy-2-phenylethylamino)phenyl]ethyl}-(R)-2-hydroxy-2-(3-formamido-4-hydroxyphenyl)ethylamine monohydrochloride] the “thermodynamic stability of Form 2 crystals compared with Form 1 crystals” value was “more thermodynamically stable”.
